# Test system: bacterial growth
# Test: Maximum PFNA experiment, image processing of bacterial growth (FIG. 6)
# Type: cell-based
# Conditions: FIG. 6, images at T=0, 10, 80 hrs
smiles,measurement,value
"O=C(O)C(F)(F)C(F)(F)C(F)(F)C(F)(F)C(F)(F)C(F)(F)C(F)(F)C(F)(F)F [PFNA Solution, Perfluorononanoic acid (PFNA)]",bacterial growth with increasing PFNA concentration,slows bacterial growth
